The values below come from patent publication US12227500B2, “Substituted pyrrolo[2,3-b]pyridines for suppressing toxic endoplasmic reticulum stress” (THE TRUSTEES OF COLUMBIA UNIVERSITY IN THE CITY OF NEW YORK, priority 2018, dated 2025).

Holding throughout (test): Radiolabeled ATP kinase assay, panel of 371 kinases (Table S6)
Holding throughout (format): biochemical

In experiment [1] the target is T1, panel of 371 human kinases (Homo sapiens, UniProt P06241).
T1 construct: purchased Reaction Biology Corp
To be noted: FYN; 0.1 μM; 10 μM ATP; read-out: % Enzyme Activity (relative to DMSO controls). From the text: (§1) ; FIG. 38C). […]. Further targeted analyses, such as genetic knock-down or knock-out, may be warranted to parse the role of these additional kinases in our model of neurodegeneration.

For experiment [2], the target named is T2, panel of 371 human kinases (Homo sapiens, UniProt Q96S53).
T2 construct: purchased Reaction Biology Corp
To be noted: TESK2; 0.1 μM; 10 μM ATP; read-out: % Enzyme Activity (relative to DMSO controls).
Text: as §1

In experiment [3] the target is T3, panel of 371 human kinases (Homo sapiens, UniProt P54764).
T3 construct: purchased Reaction Biology Corp
To be noted: EPHA4; 0.1 μM; 10 μM ATP; read-out: % Enzyme Activity (relative to DMSO controls).
Text: as §1

Experiment [4] deals with T4, panel of 371 human kinases (Homo sapiens, UniProt Q13873).
T4 construct: purchased Reaction Biology Corp
The following applies: BMPR2; 0.1 μM; 10 μM ATP; read-out: % Enzyme Activity (relative to DMSO controls).
Text: as §1

For experiment [5], the target named is T5, panel of 371 human kinases (Homo sapiens, UniProt Q06187).
T5 construct: purchased Reaction Biology Corp
The following applies: BTK; 0.1 μM; 10 μM ATP; read-out: % Enzyme Activity (relative to DMSO controls).
Text: as §1

In experiment [6] the target is T6, panel of 371 human kinases (Homo sapiens, UniProt P14616).
T6 construct: purchased Reaction Biology Corp
To be noted: IRR/INSRR; 0.1 μM; 10 μM ATP; read-out: % Enzyme Activity (relative to DMSO controls).
Text: as §1

Experiment [7] deals with T7, panel of 371 human kinases (Homo sapiens, UniProt Q8NEV4).
T7 construct: purchased Reaction Biology Corp
The following applies: MYO3A; 0.1 μM; 10 μM ATP; read-out: % Enzyme Activity (relative to DMSO controls).
Text: as §1

The target in experiment [8] is T8, panel of 371 human kinases (Homo sapiens, UniProt Q9H2G2).
T8 construct: purchased Reaction Biology Corp
The following applies: SLK/STK2; 0.1 μM; 10 μM ATP; read-out: % Enzyme Activity (relative to DMSO controls).
Text: as §1

For experiment [9], the target named is T9, panel of 371 human kinases (Homo sapiens, UniProt P43405).
T9 construct: purchased Reaction Biology Corp
The following applies: SYK; 0.1 μM; 10 μM ATP; read-out: % Enzyme Activity (relative to DMSO controls).
Text: as §1

Experiment [10] deals with T10, panel of 371 human kinases (Homo sapiens, UniProt P12931).
T10 construct: purchased Reaction Biology Corp
The following applies: c-Src; 0.1 μM; 10 μM ATP; read-out: % Enzyme Activity (relative to DMSO controls).
Text: as §1

For experiment [11], the target named is T11, panel of 371 human kinases (Homo sapiens, UniProt Q9Y3S1).
T11 construct: purchased Reaction Biology Corp
To be noted: WNK2; 0.1 μM; 10 μM ATP; read-out: % Enzyme Activity (relative to DMSO controls).
Text: as §1

The target in experiment [12] is T12, panel of 371 human kinases (Homo sapiens, UniProt Q9H4A3).
T12 construct: purchased Reaction Biology Corp
The following applies: WNK1; 0.1 μM; 10 μM ATP; read-out: % Enzyme Activity (relative to DMSO controls).
Text: as §1

In experiment [13] the target is T13, panel of 371 human kinases (Homo sapiens, UniProt Q16288).
T13 construct: purchased Reaction Biology Corp
The following applies: TRKC; 0.1 μM; 10 μM ATP; read-out: % Enzyme Activity (relative to DMSO controls).
Text: as §1

Experiment [14] has as its target T14, panel of 371 human kinases (Homo sapiens, UniProt P42681).
T14 construct: purchased Reaction Biology Corp
The following applies: TXK; 0.1 μM; 10 μM ATP; read-out: % Enzyme Activity (relative to DMSO controls).
Text: as §1

The target in experiment [15] is T15, panel of 371 human kinases (Homo sapiens, UniProt Q8WTQ7).
T15 construct: purchased Reaction Biology Corp
To be noted: GRK7; 0.1 μM; 10 μM ATP; read-out: % Enzyme Activity (relative to DMSO controls).
Text: as §1

The target in experiment [16] is T16, panel of 371 human kinases (Homo sapiens, UniProt Q05655).
T16 construct: purchased Reaction Biology Corp
The following applies: PKCd; 0.1 μM; 10 μM ATP; read-out: % Enzyme Activity (relative to DMSO controls).
Text: as §1

The target of experiment [17] is T17, panel of 371 human kinases (Homo sapiens, UniProt Q00537).
T17 construct: purchased Reaction Biology Corp
The following applies: CDK17/cyclin Y (PCTK2); 0.1 μM; 10 μM ATP; read-out: % Enzyme Activity (relative to DMSO controls).
Text: as §1

Experiment [18] addresses T18, panel of 371 human kinases (Homo sapiens, UniProt Q04912).
T18 construct: purchased Reaction Biology Corp
To be noted: RON/MST1R; 0.1 μM; 10 μM ATP; read-out: % Enzyme Activity (relative to DMSO controls).
Text: as §1

Experiment [19] addresses T19, panel of 371 human kinases (Homo sapiens, UniProt P35916).
T19 construct: purchased Reaction Biology Corp
The following applies: FLT4/VEGFR3; 0.1 μM; 10 μM ATP; read-out: % Enzyme Activity (relative to DMSO controls).
Text: as §1

For experiment [20], the target named is T20, panel of 371 human kinases (Homo sapiens, UniProt Q02156).
T20 construct: purchased Reaction Biology Corp
To be noted: PKCepsilon; 0.1 μM; 10 μM ATP; read-out: % Enzyme Activity (relative to DMSO controls).
Text: as §1

In experiment [21] the target is T21, panel of 371 human kinases (Homo sapiens, UniProt Q8WXR4).
T21 construct: purchased Reaction Biology Corp
The following applies: MYO3b; 0.1 μM; 10 μM ATP; read-out: % Enzyme Activity (relative to DMSO controls).
Text: as §1

The target of experiment [22] is T22, panel of 371 human kinases (Homo sapiens, UniProt O96017).
T22 construct: purchased Reaction Biology Corp
To be noted: CHK2; 0.1 μM; 10 μM ATP; read-out: % Enzyme Activity (relative to DMSO controls).
Text: as §1

Experiment [23] concerns the target T23, panel of 371 human kinases (Homo sapiens, UniProt Q05397).
T23 construct: purchased Reaction Biology Corp
To be noted: FAK/PTK2; 0.1 μM; 10 μM ATP; read-out: % Enzyme Activity (relative to DMSO controls).
Text: as §1

Experiment [24] addresses T24, panel of 371 human kinases (Homo sapiens, UniProt P17612).
T24 construct: purchased Reaction Biology Corp
To be noted: PKA; 0.1 μM; 10 μM ATP; read-out: % Enzyme Activity (relative to DMSO controls).
Text: as §1

T2 sequence (Q96S53 whole entry): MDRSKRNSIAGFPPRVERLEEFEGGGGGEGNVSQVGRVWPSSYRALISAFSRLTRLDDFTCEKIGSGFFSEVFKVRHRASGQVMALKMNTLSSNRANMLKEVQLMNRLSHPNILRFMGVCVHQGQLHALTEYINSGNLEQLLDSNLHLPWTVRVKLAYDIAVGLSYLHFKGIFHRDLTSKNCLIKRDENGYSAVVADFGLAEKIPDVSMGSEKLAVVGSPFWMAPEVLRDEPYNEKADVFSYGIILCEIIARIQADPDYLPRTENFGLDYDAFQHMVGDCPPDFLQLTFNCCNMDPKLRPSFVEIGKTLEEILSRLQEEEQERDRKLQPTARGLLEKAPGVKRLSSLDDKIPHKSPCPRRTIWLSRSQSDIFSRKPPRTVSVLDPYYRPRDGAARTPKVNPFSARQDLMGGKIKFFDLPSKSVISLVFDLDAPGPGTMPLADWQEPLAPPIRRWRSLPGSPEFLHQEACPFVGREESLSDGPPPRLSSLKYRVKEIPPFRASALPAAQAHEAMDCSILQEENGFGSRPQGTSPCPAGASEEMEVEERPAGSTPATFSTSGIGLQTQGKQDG
T18 sequence (Q04912 25-1400): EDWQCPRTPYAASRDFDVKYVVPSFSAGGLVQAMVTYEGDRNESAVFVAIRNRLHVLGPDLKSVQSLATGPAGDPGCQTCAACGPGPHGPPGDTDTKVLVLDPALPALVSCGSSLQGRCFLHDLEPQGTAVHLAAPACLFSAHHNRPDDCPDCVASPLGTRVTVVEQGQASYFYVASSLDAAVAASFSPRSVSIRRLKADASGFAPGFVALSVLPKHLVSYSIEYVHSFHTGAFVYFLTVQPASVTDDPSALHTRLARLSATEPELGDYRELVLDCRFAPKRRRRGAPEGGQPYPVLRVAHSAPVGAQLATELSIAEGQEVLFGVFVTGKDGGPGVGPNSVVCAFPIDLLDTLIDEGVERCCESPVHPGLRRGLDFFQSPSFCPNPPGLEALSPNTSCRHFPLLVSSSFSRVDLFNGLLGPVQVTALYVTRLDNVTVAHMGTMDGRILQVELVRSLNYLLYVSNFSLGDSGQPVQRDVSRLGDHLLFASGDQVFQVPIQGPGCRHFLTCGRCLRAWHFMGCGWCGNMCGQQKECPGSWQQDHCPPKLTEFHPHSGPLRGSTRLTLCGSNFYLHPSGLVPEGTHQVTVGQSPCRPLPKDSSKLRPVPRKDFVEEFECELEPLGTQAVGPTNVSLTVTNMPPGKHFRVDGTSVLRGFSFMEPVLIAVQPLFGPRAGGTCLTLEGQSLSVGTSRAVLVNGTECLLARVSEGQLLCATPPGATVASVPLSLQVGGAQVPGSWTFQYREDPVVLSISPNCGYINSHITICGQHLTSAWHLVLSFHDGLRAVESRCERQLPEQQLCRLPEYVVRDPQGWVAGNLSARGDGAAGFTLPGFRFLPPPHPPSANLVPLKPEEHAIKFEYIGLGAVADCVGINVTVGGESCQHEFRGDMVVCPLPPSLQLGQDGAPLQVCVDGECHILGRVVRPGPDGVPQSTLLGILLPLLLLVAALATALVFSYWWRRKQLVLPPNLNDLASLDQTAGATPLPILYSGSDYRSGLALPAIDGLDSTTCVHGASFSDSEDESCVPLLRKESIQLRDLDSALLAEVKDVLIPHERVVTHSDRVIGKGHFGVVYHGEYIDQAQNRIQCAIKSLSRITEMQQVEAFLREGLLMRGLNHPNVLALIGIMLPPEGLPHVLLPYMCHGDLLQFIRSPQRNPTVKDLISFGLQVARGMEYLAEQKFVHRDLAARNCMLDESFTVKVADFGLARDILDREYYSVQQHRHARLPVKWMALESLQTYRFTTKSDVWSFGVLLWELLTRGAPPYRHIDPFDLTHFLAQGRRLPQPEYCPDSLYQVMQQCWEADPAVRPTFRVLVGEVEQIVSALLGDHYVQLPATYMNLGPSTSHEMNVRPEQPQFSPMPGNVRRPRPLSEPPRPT
T4 sequence (Q13873 27-1038): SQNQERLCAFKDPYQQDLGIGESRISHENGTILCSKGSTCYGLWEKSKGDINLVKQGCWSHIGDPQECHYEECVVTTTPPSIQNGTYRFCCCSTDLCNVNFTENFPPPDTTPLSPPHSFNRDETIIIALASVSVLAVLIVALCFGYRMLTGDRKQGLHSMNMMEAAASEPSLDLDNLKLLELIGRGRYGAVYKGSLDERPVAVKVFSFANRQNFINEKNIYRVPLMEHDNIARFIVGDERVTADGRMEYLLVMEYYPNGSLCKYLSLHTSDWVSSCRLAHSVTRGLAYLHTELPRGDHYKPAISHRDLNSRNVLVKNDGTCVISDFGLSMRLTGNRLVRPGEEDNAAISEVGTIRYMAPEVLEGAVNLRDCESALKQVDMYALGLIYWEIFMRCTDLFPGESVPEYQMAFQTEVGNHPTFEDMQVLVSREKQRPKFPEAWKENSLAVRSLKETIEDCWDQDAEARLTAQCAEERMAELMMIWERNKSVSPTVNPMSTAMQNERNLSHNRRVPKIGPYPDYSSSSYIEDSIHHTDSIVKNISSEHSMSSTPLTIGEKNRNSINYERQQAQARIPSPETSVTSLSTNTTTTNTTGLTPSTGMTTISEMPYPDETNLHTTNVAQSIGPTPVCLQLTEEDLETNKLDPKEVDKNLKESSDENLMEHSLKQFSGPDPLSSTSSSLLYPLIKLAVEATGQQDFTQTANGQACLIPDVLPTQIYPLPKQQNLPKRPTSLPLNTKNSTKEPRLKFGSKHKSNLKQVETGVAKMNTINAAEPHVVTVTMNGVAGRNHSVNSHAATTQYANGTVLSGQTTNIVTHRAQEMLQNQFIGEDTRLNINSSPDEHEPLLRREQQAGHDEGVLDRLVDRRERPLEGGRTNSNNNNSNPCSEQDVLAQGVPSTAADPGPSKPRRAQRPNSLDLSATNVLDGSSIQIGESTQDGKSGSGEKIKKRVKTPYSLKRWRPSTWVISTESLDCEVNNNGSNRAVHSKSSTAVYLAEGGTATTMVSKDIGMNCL
T16 sequence (Q05655 whole entry): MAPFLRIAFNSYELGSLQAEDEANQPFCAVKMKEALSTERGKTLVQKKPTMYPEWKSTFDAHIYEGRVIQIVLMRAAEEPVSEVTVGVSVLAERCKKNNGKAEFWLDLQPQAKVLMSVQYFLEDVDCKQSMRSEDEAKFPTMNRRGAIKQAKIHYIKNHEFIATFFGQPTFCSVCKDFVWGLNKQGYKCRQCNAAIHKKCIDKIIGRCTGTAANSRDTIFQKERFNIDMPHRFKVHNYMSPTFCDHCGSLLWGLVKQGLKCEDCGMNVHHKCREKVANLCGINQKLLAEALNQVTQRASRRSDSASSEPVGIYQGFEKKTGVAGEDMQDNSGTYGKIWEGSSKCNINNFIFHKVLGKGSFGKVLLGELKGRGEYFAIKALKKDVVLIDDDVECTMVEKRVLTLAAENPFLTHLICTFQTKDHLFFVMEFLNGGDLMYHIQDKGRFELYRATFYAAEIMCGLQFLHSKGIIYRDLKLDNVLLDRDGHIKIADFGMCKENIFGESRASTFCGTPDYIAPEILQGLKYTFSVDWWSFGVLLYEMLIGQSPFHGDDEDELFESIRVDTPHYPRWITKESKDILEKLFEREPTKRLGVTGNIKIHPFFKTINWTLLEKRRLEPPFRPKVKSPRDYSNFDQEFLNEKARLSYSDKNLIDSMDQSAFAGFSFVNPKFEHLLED
T19 sequence (P35916 25-1363): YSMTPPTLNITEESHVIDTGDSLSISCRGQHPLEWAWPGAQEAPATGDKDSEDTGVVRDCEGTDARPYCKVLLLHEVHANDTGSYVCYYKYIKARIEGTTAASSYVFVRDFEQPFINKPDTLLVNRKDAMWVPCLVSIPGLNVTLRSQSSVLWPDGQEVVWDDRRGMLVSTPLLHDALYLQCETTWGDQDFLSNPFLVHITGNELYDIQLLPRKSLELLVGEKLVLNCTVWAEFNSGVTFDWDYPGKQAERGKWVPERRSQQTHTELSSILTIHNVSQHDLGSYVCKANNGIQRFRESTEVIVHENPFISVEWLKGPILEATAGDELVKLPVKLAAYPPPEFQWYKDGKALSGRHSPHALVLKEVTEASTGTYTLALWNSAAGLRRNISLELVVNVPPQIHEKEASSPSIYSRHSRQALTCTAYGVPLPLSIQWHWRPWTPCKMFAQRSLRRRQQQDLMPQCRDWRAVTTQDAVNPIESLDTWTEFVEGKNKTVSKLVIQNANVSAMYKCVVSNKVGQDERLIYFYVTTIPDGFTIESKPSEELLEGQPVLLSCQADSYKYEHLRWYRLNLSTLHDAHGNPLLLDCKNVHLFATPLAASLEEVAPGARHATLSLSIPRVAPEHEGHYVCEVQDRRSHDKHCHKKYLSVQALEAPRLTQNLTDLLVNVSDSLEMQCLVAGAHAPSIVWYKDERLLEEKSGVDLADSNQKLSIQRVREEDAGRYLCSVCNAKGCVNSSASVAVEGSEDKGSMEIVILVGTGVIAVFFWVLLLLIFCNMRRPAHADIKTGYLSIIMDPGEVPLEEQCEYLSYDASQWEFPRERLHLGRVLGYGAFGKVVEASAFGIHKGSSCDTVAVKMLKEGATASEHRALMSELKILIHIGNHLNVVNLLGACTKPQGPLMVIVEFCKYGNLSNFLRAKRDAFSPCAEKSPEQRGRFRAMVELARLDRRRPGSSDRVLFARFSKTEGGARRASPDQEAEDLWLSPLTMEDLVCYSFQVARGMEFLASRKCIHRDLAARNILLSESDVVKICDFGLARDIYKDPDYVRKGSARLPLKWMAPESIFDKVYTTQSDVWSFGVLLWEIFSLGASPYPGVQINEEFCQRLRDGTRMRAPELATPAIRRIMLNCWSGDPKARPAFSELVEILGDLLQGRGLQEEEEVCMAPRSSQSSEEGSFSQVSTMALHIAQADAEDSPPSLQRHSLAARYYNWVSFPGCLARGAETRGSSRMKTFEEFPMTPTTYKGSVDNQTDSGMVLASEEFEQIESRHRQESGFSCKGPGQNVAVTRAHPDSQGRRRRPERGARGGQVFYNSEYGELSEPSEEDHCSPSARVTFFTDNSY

`OCCN1CCN(Cc2ccc(-c3cnc4[nH]cc(-c5cccc(Cl)c5)c4c3)cc2)CC1` [Compound 12k, 2-(4-(4-(3-(3-Chlorophenyl)-1H-pyrrolo[2,3-b]pyridin-5-yl)benzyl)piperazin-1-yl)ethan-1-ol]: the remaining activity at 0.1 µM in experiment [1] was 96.3%; in [2] it was 92.7%; in [3], 88.7%; in [4], 90.3%; in experiment [5], 99.7%; in experiment [6], 89.9%. The remaining activity at 0.1 µM was found to be 79.1% in experiment [7]; 83.5% in [8]; 93.9% in [9]; 88.1% in experiment [10]; 94.8% in experiment [11]; 100% in [12]. The remaining activity at 0.1 µM stood at 52.2% in experiment [13]; 87% in experiment [14]; 97.1% in experiment [15]; 102% in [16]; 74% in experiment [17]; 94.1% in experiment [18]. Moreover, the remaining activity at 0.1 µM in experiment [19] came out at 85.8%; in experiment [20] it was 98.6%; in experiment [21], 40.7%; in experiment [22], 93.5%; in experiment [23], 88.5%; in experiment [24], 94.5%.

`CN1CCN(Cc2ccc(-c3cnc4[nH]cc(-c5ccc6[nH]ccc6c5)c4c3)cc2)CC1` [Compound 1, 3-(1H-Indol-5-yl)-5-(4-((4-methylpiperazin-1-yl)methyl)phenyl)-1H-pyrrolo[2,3-b]pyridine, reference compound]: the remaining activity at 0.1 µM in experiment [1] was 92.1%; in [2] it was 112%; in [3], 94.2%; in [4], 90.5%; in experiment [5], 103%; in [6] it was 50.1%. Besides, the remaining activity at 0.1 µM in [7] worked out at 88.6%; in experiment [8], 93.2%; in [9] it was 89.6%; in experiment [10], 86%; in experiment [11], 93%; in [12], 117%. Further, the remaining activity at 0.1 µM in [13] was 19.4%; in experiment [14], 85.3%; in experiment [15] it was 101%; in experiment [16], 92.3%; in experiment [17], 88%; in experiment [18], 91.6%. Also, the remaining activity at 0.1 µM in experiment [19] came out at 81.7%; in experiment [20], 110%; in experiment [21] it was 80.8%; in experiment [22] it was 85.2%; in experiment [23], 86.3%; in experiment [24], 104%.
